Measurements published in the NIST ThermoML archive (doi:10.1016/j.tca.2012.01.013).

What was measured:
[1] = refractive index (Na D-line) (dimensionless); xn = mol fraction of the nth substance listed; conditions: 101 kPa, Liquid, Standard Abbe refractometry
[2] = xn = mol fraction of the nth substance listed; conditions: 101 kPa, Liquid, Vibrating tube method

COC(=O)c1ccccc1C(=O)OC [dimethyl 1,2-benzenedicarboxylate] + CCC(C)O
Conditions	mass density, [2] [kg/m3]	refractive index, [1]
288.15 K, x1 = 0.1002	874.348	1.41917
288.15 K, x1 = 0.2014	929.895	1.43651
288.15 K, x1 = 0.3002	977.298	1.45122
288.15 K, x1 = 0.4001	1019.6	1.46424
288.15 K, x1 = 0.5002	1057.27	1.47591
288.15 K, x1 = 0.5991	1090.58	1.48597
288.15 K, x1 = 0.6993	1120.97	1.49516
288.15 K, x1 = 0.7996	1148.47	1.50345
288.15 K, x1 = 0.9015	1173.86	1.51115
288.15 K, x1 = 1	1196.26	1.51779
293.15 K, x1 = 0.1002	870.052	1.41698
293.15 K, x1 = 0.2014	925.438	1.43429
293.15 K, x1 = 0.3002	972.737	1.44898
293.15 K, x1 = 0.4001	1014.97	1.46209
293.15 K, x1 = 0.5002	1052.6	1.47367
293.15 K, x1 = 0.5991	1085.88	1.48373
293.15 K, x1 = 0.6993	1116.26	1.49296
293.15 K, x1 = 0.7996	1143.78	1.50126
293.15 K, x1 = 0.9015	1169.18	1.50899
293.15 K, x1 = 1	1191.59	1.51565
298.15 K, x1 = 0.1002	865.694	1.41476
298.15 K, x1 = 0.2014	920.934	1.43205
298.15 K, x1 = 0.3002	968.144	1.44672
298.15 K, x1 = 0.4001	1010.32	1.45982
298.15 K, x1 = 0.5002	1047.9	1.47143
298.15 K, x1 = 0.5991	1081.18	1.48158
298.15 K, x1 = 0.6993	1111.56	1.49076
298.15 K, x1 = 0.7996	1139.08	1.49911
298.15 K, x1 = 0.9015	1164.51	1.50685
298.15 K, x1 = 1	1186.93	1.51354
303.15 K, x1 = 0.1002	861.267	1.41252
303.15 K, x1 = 0.2014	916.383	1.42979
303.15 K, x1 = 0.3002	963.512	1.44444
303.15 K, x1 = 0.4001	1005.63	1.45755
303.15 K, x1 = 0.5002	1043.19	1.46921
303.15 K, x1 = 0.5991	1076.45	1.47934
303.15 K, x1 = 0.6993	1106.84	1.48856
303.15 K, x1 = 0.7996	1134.39	1.49692
303.15 K, x1 = 0.9015	1159.83	1.5047
303.15 K, x1 = 1	1182.28	1.51146
308.15 K, x1 = 0.1002	856.794	1.4102
308.15 K, x1 = 0.2014	911.783	1.42751
308.15 K, x1 = 0.3002	958.844	1.44214
308.15 K, x1 = 0.4001	1000.92	1.45527
308.15 K, x1 = 0.5002	1038.47	1.46689
308.15 K, x1 = 0.5991	1071.73	1.47701
308.15 K, x1 = 0.6993	1102.13	1.48633
308.15 K, x1 = 0.7996	1129.69	1.49475
308.15 K, x1 = 0.9015	1155.16	1.50256
308.15 K, x1 = 1	1177.62	1.50943
313.15 K, x1 = 0.1002	852.235	1.40779
313.15 K, x1 = 0.2014	907.129	1.42515
313.15 K, x1 = 0.3002	954.133	1.43975
313.15 K, x1 = 0.4001	996.185	1.45295
313.15 K, x1 = 0.5002	1033.72	1.46458
313.15 K, x1 = 0.5991	1066.99	1.47484
313.15 K, x1 = 0.6993	1097.4	1.48415
313.15 K, x1 = 0.7996	1124.99	1.49263
313.15 K, x1 = 0.9015	1150.49	1.50047
313.15 K, x1 = 1	1172.97	1.50736
318.15 K, x1 = 0.1002	847.597	1.40549
318.15 K, x1 = 0.2014	902.417	1.42284
318.15 K, x1 = 0.3002	949.381	1.43749
318.15 K, x1 = 0.4001	991.415	1.45068
318.15 K, x1 = 0.5002	1028.95	1.46236
318.15 K, x1 = 0.5991	1062.23	1.47262
318.15 K, x1 = 0.6993	1092.67	1.48194
318.15 K, x1 = 0.7996	1120.3	1.49047
318.15 K, x1 = 0.9015	1145.82	1.49835
318.15 K, x1 = 1	1168.32	1.50524
323.15 K, x1 = 0.1002	842.887	1.40309
323.15 K, x1 = 0.2014	897.649	1.42026
323.15 K, x1 = 0.3002	944.587	1.4351
323.15 K, x1 = 0.4001	986.618	1.4483
323.15 K, x1 = 0.5002	1024.16	1.46001
323.15 K, x1 = 0.5991	1057.47	1.47032
323.15 K, x1 = 0.6993	1087.94	1.47972
323.15 K, x1 = 0.7996	1115.59	1.48828
323.15 K, x1 = 0.9015	1141.14	1.49621
323.15 K, x1 = 1	1163.67	1.5032
